Laboratory results taken from ChEMBL document CHEMBL1201862, “PubChem BioAssay data set” (2004).
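Dose response: 5 concentrations. Exposure: 48 h. Format: 96-well plates. Endpoint: linear interpolation; highest concentration if not reached. GI50: concentration for 50% inhibition of growth.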 Active and inactive are the calls of the source. No stated cut-off is given here; in the data, active = GI50 up to about 1.1 µM and inactive = higher.

How the values were obtained:
Test in all cases: inhibition of tumour cell growth, NCI panel, 48 h
BT-549 = test system: BT-549
DLD-1 = test system: DLD-1
DMS-114 = test system: DMS-114
KM-20L2 = test system: KM-20L2
LXFL 529 = test system: LXFL 529
M19-MEL = test system: M19-MEL
RXF 631 = test system: RXF 631
XF498 = test system: XF498
DMS-273 = test system: DMS-273

SMILES | GI50 (BT-549) | GI50 (DLD-1) | GI50 (DMS-114) | GI50 (KM-20L2) | GI50 (LXFL 529) | GI50 (M19-MEL) | GI50 (RXF 631) | GI50 (XF498) | GI50 (DMS-273)
CC(C)Cc1ccc(C(C)/C=C2\CCC(CN3CCOCC3)C2=O)cc1 (centres undefined) | 17.9 µM (inactive) | 2.71 µM (inactive) | 13.4 µM (inactive) | 16.3 µM (inactive) | 1.64 µM (inactive) | 10.2 µM (inactive) | 18.1 µM (inactive) | 16.4 µM (inactive) | –
N#CNCC(COCc1ccccc1)c1ccccc1 (centres undefined) | – | – | 53.2 µM (inactive) | > 100 µM (inactive) | – | > 100 µM (inactive) | > 100 µM (inactive) | 47.6 µM (inactive) | 94.4 µM (inactive)
Cc1cc(Cl)ccc1NC(=O)CC1SC(Nc2ccccc2Cl)=NC1=O (centres undefined) | – | 28.1 µM (inactive) | 21.1 µM (inactive) | 26.8 µM (inactive) | 34.9 µM (inactive) | 38.9 µM (inactive) | 45.6 µM (inactive) | 62.1 µM (inactive) | 26.4 µM (inactive)
CCOc1ccc(OCC)c([P+](c2ccccc2)(c2ccccc2)c2ccccc2)c1 | – | 0.548 µM (active) | 0.245 µM (active) | 0.333 µM (active) | 0.198 µM (active) | 0.4 µM (active) | 2.4 µM (inactive) | 0.0841 µM (active) | 0.236 µM (active)
Cc1nc2c(=O)n(C)c(=O)nc-2n(-c2ccc(Cl)cc2)c1C | – | 85.9 µM (inactive) | > 100 µM (inactive) | 46.7 µM (inactive) | 62.7 µM (inactive) | > 100 µM (inactive) | > 100 µM (inactive) | > 100 µM (inactive) | > 100 µM (inactive)
COc1cccc(-n2c3nc(=O)n(C)c(=O)c-3nc3ccccc32)c1 | – | 25.2 µM (inactive) | 5.11 µM (inactive) | 4.83 µM (inactive) | 21.6 µM (inactive) | 2.43 µM (inactive) | 19.1 µM (inactive) | 16.3 µM (inactive) | 6.95 µM (inactive)
O=C(CCN(C(=O)O)S(=O)(=O)c1ccc(NC(=O)c2ccccc2)cc1)Nc1ccccc1 | – | > 79.8 µM (inactive) | > 56 µM (inactive) | > 100 µM (inactive) | > 100 µM (inactive) | > 76.9 µM (inactive) | > 100 µM (inactive) | > 100 µM (inactive) | > 65.3 µM (inactive)
CC1=NN2C(c3ccc([N+](=O)[O-])cc3)=CSC2=NC(C)(C)C1 | – | > 100 µM (inactive) | 67.8 µM (inactive) | > 100 µM (inactive) | > 100 µM (inactive) | > 100 µM (inactive) | > 100 µM (inactive) | > 100 µM (inactive) | > 100 µM (inactive)
CCOc1ccccc1NC(=O)CC1Sc2ccccc2NC1=O (centres undefined) | – | 75.7 µM (inactive) | – | 57.7 µM (inactive) | 59.2 µM (inactive) | 64.4 µM (inactive) | 58.5 µM (inactive) | 80.4 µM (inactive) | 48.6 µM (inactive)
